{"source": "paper PMC6050476", "about": "“Pre-clinical Pharmacokinetic and Metabolomic Analyses of Isorhapontigenin, a Dietary Resveratrol Derivative” (Frontiers in Pharmacology, 2018)", "key": {"[1]": {"test": "Stock solution stability of isorhapontigenin", "type": "physicochemical", "settings": "24 °C, 10 days; stock solution in DMSO", "method": "Stock solutions of ISO were prepared by dissolution in DMSO and they were stored at room temperature. The stock solutions were further diluted using blank rat plasma to prepare the calibration standards and QC samples. The stock solution of IS was dissolved in acetonitrile to a concentration of 10 μg/mL. 100 μL IS solution was aliquoted into 1.5-mL polypropylene tubes for storage at −80°C. During sample preparation, this solution was further diluted to the working concentration of 10 ng/mL using acetonitrile containing 0.18 μM of disodium EDTA and stored at 4°C.\nThe dilution integrity was confirmed using a dilution factor of 20. In the presence of L-ascorbic acid (0.8 mg/mL), ISO appeared to stable in plasma; similarly, addition of EDTA in IS acetonitrile solution (0.18 μM) enhanced the post-preparative stability. The details in accuracy, precision, stability, and matrix effect can be found in Supplementary Tables S1–S3."}, "plasma metabolites": {"tested_on": "plasma metabolites", "test": "Plasma metabolomic profiling after 1-week isorhapontigenin intervention (GC–MS/MS)", "type": "in vivo, Sprague-Dawley rats", "settings": "1-week daily oral ISO 100 μmol/kg vs vehicle, rat plasma", "method": "Twenty-two rats were divided into four groups. Group 1 (n = 5) received a single bolus intravenous injection of ISO at the dose of 90 μmol/kg (23.2 mg/kg). Serial blood samples were collected before dosing and at 5, 15, 30, 60, 90, 120, 180, 240, 300, 420, 540, and 720 min after intravenous injection. Group 2 (n = 5) received a single oral administration of ISO at the dose of 200 μmol/kg (51.6 mg/kg). Serial blood samples were collected before dosing and at 15, 30, 45, 60, 90, 120, 180, 240, 300, 420, 540, and 720 min after oral gavage. Group 3 (n = 5) received daily oral pre-treatment of oral dosing vehicle (2 mL/kg) while Group 4 (n = 7) received daily oral pre-treatment of ISO at the dose of 100 μmol/kg (25.8 mg/kg) for 1 week. On day 7, ∼8–10 h after the last pre-treatment dose, surgery was performed on rats in Groups 3 and 4 for jugular vein cannulation, and blood samples were also collected from Groups 3 and 4 for metabolomic study. On day 8, the pharmacokinetic study was carried out on these two groups of animals at the dose of 100 μmol/kg (25.8 mg/kg) using the same blood sampling schedule as Group 2.\nThe plasma samples collected from rats receiving 1-week daily oral dosing of ISO at 100 μmol/kg (25.8 mg/kg) were subjected to metabolomic study using the rats receiving vehicle as control.\nPlasma samples (30 μL aliquots in Eppendorf tubes) were thawed to room temperature (25°C). Myristic-d27 acid (20 μL of 200 μg/mL solution in methanol, IS) and 200 μL of methanol were added to each sample. Samples were vortexed for 5 min at room temperature and centrifuged for 10 min at 15,000 g (4°C). The top 200 μL of each supernatant was transferred to a glass centrifuge tube and dried under nitrogen gas. The dried samples were re-suspended in 100 μL of toluene, vortexed vigorously for 10 s, and dried again under nitrogen. A two-step derivatization method was used for chemical derivatization of the metabolites. Samples were first incubated with 50 μL of 2% methoxy-amine chloride in pyridine for 1.5 h at 60°C. Next, 50 μL of […] was added and the samples were incubated again for 1 h at 60°C. A total of 80 μL of derivatized samples were transferred to glass vials for GC–MS/MS analysis ([Chen et al., 2016a]). Pooled rat plasma from different plasma samples was used as QC and distilled water as blank samples. Two pooled plasma samples were injected before the first study sample and three pooled plasma samples were injected after every six study samples which serve as QC. The blank samples were injected at the beginning, at the middle, and at the end of the sample batch ([Phua et al., 2015]; [Chen et al., 2016a]).\nGC–MS/MS analysis was performed using a Shimadzu TQ8040 gas chromatography-triple quadrupole mass spectrometer (Shimadzu Corporation, Japan). The GC injector port was set at 250°C and injection volume was 1 μL with a spilt ratio of 1:10. Chromatographic separation was achieved by a capillary column (BPX-5, 30 m × 0.25 mm × 0.25 μm, SGE Analytical Science, Australia) through constant helium carrier gas flow at 1.14 mL/min. The oven temperature was first held at 60°C for 2 min, followed by increasing temperature ramp of 15°C/min to 330°C, and then held at 330°C for 3 min. The interface and ion source were set at 280 and 200°C, respectively. The mass spectrometer was operated in the MRM mode.\nThe Shimadzu Smart Metabolites Database (Shimadzu Corporation, Japan) which contains a panel of 475 different endogenous metabolites was applied to identify the metabolites in rat plasma samples in this widely targeted metabolomics analysis. This database contains the retention indices and two MRM transitions of each of the 475 endogenous metabolites which facilitate simple, fast, and reliable metabolite identification and semi-quantification. This strategy has been successfully applied to many studies ([Hashimoto et al., 2017]; [Nishiumi et al., 2017]; [Tomonaga et al., 2018]). […]"}}, "data": [{"smiles": "COc1cc(/C=C/c2cc(O)cc(O)c2)ccc1O", "note": "[isorhapontigenin, trans-3,5,4′-trihydroxy-3′-methoxystilbene]", "values": [{"measurement": "Stock solution stability (% remaining)", "setting": "[1]", "value": "96.7 ± 3.0", "unit": "% remaining"}, {"measurement": "Fold change of plasma 2-Aminoisobutyric acid", "setting": "plasma metabolites", "value": 1.351}, {"measurement": "Fold change of plasma 4-Hydroxyproline", "setting": "plasma metabolites", "value": 0.564}, {"measurement": "Fold change of plasma Acetylglycine", "setting": "plasma metabolites", "value": 0.508}, {"measurement": "Fold change of plasma Allantoin", "setting": "plasma metabolites", "value": 0.545}, {"measurement": "Fold change of plasma Arachidonic acid", "setting": "plasma metabolites", "value": 0.789}, {"measurement": "Fold change of plasma Aspartic acid", "setting": "plasma metabolites", "value": 0.475}, {"measurement": "Fold change of plasma Cadaverine", "setting": "plasma metabolites", "value": 0.54}, {"measurement": "Fold change of plasma Catechol", "setting": "plasma metabolites", "value": 1.411}, {"measurement": "Fold change of plasma Cholesterol", "setting": "plasma metabolites", "value": 0.789}, {"measurement": "Fold change of plasma Eicosapentaenoic acid", "setting": "plasma metabolites", "value": 0.762}, {"measurement": "Fold change of plasma Fructose", "setting": "plasma metabolites", "value": 0.608}, {"measurement": "Fold change of plasma Glycerol 2-phosphate", "setting": "plasma metabolites", "value": 0.73}, {"measurement": "Fold change of plasma Glycyl-glycine", "setting": "plasma metabolites", "value": 0.648}, {"measurement": "Fold change of plasma Linoleic acid", "setting": "plasma metabolites", "value": 0.82}, {"measurement": "Fold change of plasma N-Acetyl-ornithine", "setting": "plasma metabolites", "value": 0.474}, {"measurement": "Fold change of plasma N-Acetylglutamine", "setting": "plasma metabolites", "value": 0.804}, {"measurement": "Fold change of plasma Psicose", "setting": "plasma metabolites", "value": 0.709}, {"measurement": "Fold change of plasma Sorbose", "setting": "plasma metabolites", "value": 0.698}, {"measurement": "Fold change of plasma Tagatose", "setting": "plasma metabolites", "value": 0.705}, {"measurement": "Fold change of plasma Thymine", "setting": "plasma metabolites", "value": 1.198}, {"measurement": "Fold change of plasma Tryptamine", "setting": "plasma metabolites", "value": 1.469}, {"measurement": "effect on plasma glucose levels", "setting": "plasma metabolites; no food restriction", "value": "did not change glucose levels"}]}]}
